This note sets out measurements from patent US20260007758A1, “SO[…]-2 RECEPTOR (SST2R) NON-PEPTIDE DRUG CONJUGATES AND USES THEREOF” (Crinetics Pharmaceuticals, Inc., priority 2024, published 2026).

*1 amine or outer side, *2 acyl side, *3 side chain or, on linkers, in order; H or OH if unused. Where a SMILES comes first, the peptide text is derived from it. [ ]: non-standard residue; d: D form. The star is where a group is joined. X4 = Cc1cc(F)cc(-c2cnc(NCCNC(=O)CCOCCC(=O)*)c(-c3nc4ccc(Cl)cc4[nH]3)c2N2CCC(N)CC2)c1; Dolaproine = CO[C@@H]([C@@H]1CCCN1)[C@@H](C)C(=O)O; Dil = CC[C@H](C)[C@H](NC)[C@@H](CC(=O)O)OC; PABC = O=C(OCc1ccc(N[*:1])cc1)[*:2]; X2 = C[C@@H](N*)[C@@H](O)c1ccccc1; Cit = NC(=O)NCCC[C@H](N)C(=O)O; NMeV = CN[C@H](C(=O)O)C(C)C; PEG1 = NCCOCCC(=O)O

Common to all, as to format: cell-based
Test [1] addresses T1, human somatostatin receptor subtype 2 (Homo sapiens, UniProt P30874).
T1 construct: expressed in transfected cells
The test is described as follows: Functional assay for SSTR2 agonists (HTRF cAMP). The following applies: CHO-K1 cells stably expressing human SST2; NKH477-stimulated cAMP; 20 min at 37 C; read-out: hSST2 cAMP Avg EC50. Summed up:
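CHO-K1 cells stably expressing human SSTR2 treated with compound (typically 0-10,000 nM final) for 20 min at 37 °C. Lysate cAMP measured by HTRF (665/620 nm ratio), converted via standard curve; EC50 from cAMP vs concentration.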
A general note: Time-resolved FRET reads energy transfer from a long-lived donor to a nearby acceptor.

The target of a further test is T2, SST2 (Homo sapiens, UniProt P30874).
T2 construct: host or cells: PathHunter CHO-K1 SST2 cells
T2 sequence (P30874 whole entry): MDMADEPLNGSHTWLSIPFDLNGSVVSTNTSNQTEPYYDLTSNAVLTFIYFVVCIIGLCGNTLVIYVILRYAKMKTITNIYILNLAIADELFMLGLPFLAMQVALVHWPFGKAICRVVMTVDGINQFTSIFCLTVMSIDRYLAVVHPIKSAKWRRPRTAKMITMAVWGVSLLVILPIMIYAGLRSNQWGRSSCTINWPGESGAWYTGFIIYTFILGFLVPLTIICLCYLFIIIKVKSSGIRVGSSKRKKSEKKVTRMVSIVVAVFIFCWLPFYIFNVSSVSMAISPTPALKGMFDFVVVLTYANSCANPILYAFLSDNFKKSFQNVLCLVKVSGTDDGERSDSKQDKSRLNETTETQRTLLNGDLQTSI
The test is described as follows: PathHunter CHO-K1 SST2 Internalization Assay. As to conditions: PathHunter CHO-K1 SST2 cells; 90 min at 37 C; luminescence; read-out: Internalization EC50. The method in brief:
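CHO-K1 cells expressing human SST2, 2500 cells/well, grown 48 h, then exposed 90 min at 37 C to 11-point 1:3 NDC dilutions (final top 10 uM). Beta-Glo luminescence after 60 min at room temperature; four-parameter IC50, duplicate mean, background-corrected.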

Test [2] deals with NCI-H524 human small cell lung cancer cells. The test is described as follows: H524 assay: inhibition of cell proliferation (CellTiter Glo). As to conditions: 2 h treatment, washout, additional 70 h incubation. The method in brief: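 NCI-H524 cells were exposed for 2 h to NDC in an 11-point two-fold series starting at 1 uM. The drug was then washed out and cells grew a further 70 h. CellTiter Glo luminescence gave % inhibition versus untreated control, and IC50 came from a four-parameter nonlinear regression.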
In general terms: Cellular ATP, detected with luciferase, serves as a proxy for viable cell number.

T1 sequence (P30874 whole entry): as above

By EC50 is commonly meant the concentration at which the effect is half-maximal. Consider `CC[C@H](C)[C@@H]([C@@H](CC(=O)N1CCC[C@H]1[C@H](OC)[C@@H](C)C(=O)N[C@H](C)[C@@H](O)c1ccccc1)OC)N(C)C(=O)[C@@H](NC(=O)[C@H](C(C)C)N(C)C(=O)OCc1ccc(NC(=O)[C@H](C)NC(=O)[C@@H](NC(=O)CCOCCC(=O)NCCNc2ncc(-c3cc(C)cc(F)c3)c(N3CCC(N)CC3)c2-c2nc3cnccc3[nH]2)C(C)C)c(O[C@@H]2O[C@H](C(=O)O)[C@@H](O)[C@H](O)[C@H]2O)c1)C(C)C` [Compound 127], for which the EC50 amounted to 1.6 nM in test [1], 290 nM on SST2 and 170 nM in test [2].
The matching figures for `CC[C@H](C)[C@@H]([C@@H](CC(=O)N1CCC[C@H]1[C@H](OC)[C@@H](C)C(=O)N[C@H](C)[C@@H](O)c1ccccc1)OC)N(C)C(=O)[C@@H](NC(=O)[C@H](C(C)C)N(C)C(=O)OCc1ccc(NC(=O)[C@H](CCCNC(N)=O)NC(=O)[C@@H](NC(=O)CCOCCC(=O)NCCNc2ncc(-c3cc(C)cc(F)c3)c(N3CCC(N)CC3)c2-c2nc3ccc(Cl)cc3[nH]2)C(C)C)cc1C(=O)NOCCN)C(C)C` [Compound 88]: 0.25 nM, 3.1 nM and 84 nM.
Regarding `CC[C@H](C)[C@@H]([C@@H](CC(=O)N1CCC[C@H]1[C@H](OC)[C@@H](C)C(=O)N[C@H](C)[C@@H](O)c1ccccc1)OC)N(C)C(=O)[C@@H](NC(=O)C(C(C)C)N(C)C(=O)OCc1ccc(NC(=O)[C@H](CCCNC(N)=O)NC(=O)[C@@H](NC(=O)CCOCCC(=O)NCCNc2ncc(-c3cc(C)cc(F)c3)c(N3CCC(N)CC3)c2-c2nc3ccc(Cl)cc3[nH]2)C(C)C)c(O[C@@H]2O[C@H](C(=O)N3CCN(CC(=O)O)CC3)[C@@H](O)[C@H](O)[C@H]2O)c1)C(C)C` (stereo partly drawn) [Compound 227], the EC50 worked out at 0.078 nM in test [1], 3.1 nM on SST2 and 11 nM in test [2].
On the same counts, the results for `CC[C@H](C)[C@@H]([C@@H](CC(=O)N1CCC[C@H]1[C@H](OC)[C@@H](C)C(=O)N[C@H](C)[C@@H](O)c1ccccc1)OC)N(C)C(=O)[C@@H](NC(=O)[C@H](C(C)C)N(C)C(=O)OCc1ccc(NC(=O)[C@H](CCCNC(N)=O)NC(=O)[C@@H](NC(=O)c2cc(NCCOCCOCCOCCC(=O)NCCNc3ncc(-c4cc(C)cc(F)c4)c(N4CCC(N)CC4)c3-c3nc4ccc(Cl)cc4[nH]3)cc(C(=O)OC)c2)C(C)C)cc1)C(C)C` [Compound 178] are 0.27 nM, 5.6 nM and 620 nM.
As to `CC[C@H](C)[C@@H]([C@@H](CC(=O)N1CCC[C@H]1[C@H](OC)[C@@H](C)C(=O)N[C@H](C)[C@@H](O)c1ccccc1)OC)N(C)C(=O)[C@@H](NC(=O)[C@H](C(C)C)N(C)C(=O)OCc1ccc(NC(=O)[C@H](CCCNC(N)=O)NC(=O)[C@@H](NC(=O)CCOCCC(=O)NCCCNc2ncc(-c3cc(C)cc(F)c3)c(N3CCC(N)CC3)c2-c2nc3ccc(Cl)cc3[nH]2)C(C)C)c(O[C@@H]2O[C@H](C(=O)O)[C@@H](O)[C@H](O)[C@H]2O)c1)C(C)C` [Compound 195], the values for the EC50 (in test [1]; on SST2; in test [2]) were 0.35 nM, 4.1 nM and 8.5 nM, respectively.
The matching figures for `CC[C@H](C)[C@@H]([C@@H](CC(=O)N1CCC[C@H]1[C@H](OC)[C@@H](C)C(=O)N[C@H](C)[C@@H](O)c1ccccc1)OC)N(C)C(=O)[C@@H](NC(=O)[C@H](C(C)C)N(C)C(=O)OCc1ccc(NC(=O)[C@H](CCCNC(N)=O)NC(=O)[C@@H](NC(=O)CCOCCC(=O)NCCNc2ncc(-c3cc(C)cc(F)c3)c(N3CCC(N)CC3)c2-c2nc3ccc(Cl)cc3[nH]2)C(C)C)c(O[C@@H]2O[C@H](C(=O)NCCNC(=O)CCOCCOCCOCCOCCC(=O)O)[C@@H](O)[C@H](O)[C@H]2O)c1)C(C)C` [Compound 52]: 0.14 nM, 3.5 nM and 17 nM.
For the compound `CC[C@H](C)[C@@H]([C@@H](CC(=O)N1CCC[C@H]1[C@H](OC)[C@@H](C)C(=O)N[C@H](C)[C@@H](O)c1ccccc1)OC)N(C)C(=O)[C@@H](NC(=O)[C@H](C(C)C)N(C)C(=O)OCc1ccc(NC(=O)[C@H](CCCNC(N)=O)NC(=O)[C@@H](NC(=O)c2cc(NCCOCCOCCOCCOCCC(=O)NCCNc3ncc(-c4cc(C)cc(F)c4)c(N4CCC(N)CC4)c3-c3nc4ccc(Cl)cc4[nH]3)cc(C(=O)NCC(=O)O)c2)C(C)C)cc1)C(C)C` [Compound 144], the EC50 worked out at 0.25 nM in test [1], 21 nM on SST2 and 81 nM in test [2].
As to `CC[C@H](C)[C@@H]([C@@H](CC(=O)N1CCC[C@H]1[C@H](OC)[C@@H](C)C(=O)N[C@H](C)[C@@H](O)c1ccccc1)OC)N(C)C(=O)[C@@H](NC(=O)[C@H](C(C)C)N(C)C(=O)OCc1ccc(NC(=O)[C@H](CCCNC(N)=O)NC(=O)[C@@H](NC(=O)c2cc(NCCCC(=O)N(C)CC(=O)NCCNc3ncc(-c4cc(C)cc(F)c4)c(N4CCC(N)CC4)c3-c3nc4ccc(Cl)cc4[nH]3)cc(C(=O)NC[C@@H](N)C(=O)O)c2)C(C)C)cc1)C(C)C` [Compound 172], the concentration for a half-maximal effect (EC50) came to 0.33 nM in test [1], 6.3 nM at SST2 and 22 nM in test [2].
The matching figures for `CC[C@H](C)[C@@H]([C@@H](CC(=O)N1CCC[C@H]1[C@H](OC)[C@@H](C)C(=O)N[C@H](C)[C@@H](O)c1ccccc1)OC)N(C)C(=O)[C@@H](NC(=O)[C@H](C(C)C)N(C)C(=O)OCc1ccc(NC(=O)[C@H](CCCNC(N)=O)NC(=O)[C@@H](NC(=O)CCOCCNC(=O)[C@H](CCC(=O)O)NC(=O)[C@H](CCC(N)=O)NC(=O)CCOCCC(=O)NCCNc2ncc(-c3cc(C)cc(F)c3)c(N3CCC(N)CC3)c2-c2nc3ccc(Cl)cc3[nH]2)C(C)C)cc1)C(C)C` [Compound 191] (X4-QE[PEG1]V[Cit][PABC][NMeV]V[Dil][Dolaproine]-X2): 1.9 nM, 38 nM and 1700 nM.
On to `CC[C@H](C)[C@@H]([C@@H](CC(=O)N1CCC[C@H]1[C@H](OC)[C@@H](C)C(=O)N[C@H](C)[C@@H](O)c1ccccc1)OC)N(C)C(=O)[C@@H](NC(=O)[C@H](C(C)C)N(C)C(=O)OCc1ccc(NC(=O)[C@@H](CCCNC(N)=O)NC(=O)[C@@H](NC(=O)CCOCCC(=O)NCCNc2ncc(-c3cc(C)cc(F)c3)c(N3CCC(N)CC3)c2-c2nc3ccc(Cl)cc3[nH]2)C(C)C)c(O[C@H]2[C@H](O)[C@@H](O)[C@H](O)[C@@H](C(=O)O)[C@H]2O)c1)C(C)C` [Compound 241], for which the EC50 in test [1] was 0.19 nM; at SST2 it was 4.6 nM; in test [2], 2900 nM.
The matching figures for `CC[C@H](C)[C@@H]([C@@H](CC(=O)N1CCC[C@H]1[C@H](OC)[C@@H](C)C(=O)N[C@H](C)[C@@H](O)c1ccccc1)OC)N(C)C(=O)[C@@H](NC(=O)[C@H](C(C)C)N(C)C(=O)OCc1ccc(NC(=O)[C@H](CCCNC(N)=O)NC(=O)[C@@H](NC(=O)CCOCCOCCOCCOCCC(=O)N(C)CC(=O)NCCNc2ncc(-c3cc(C)cc(F)c3)c(N3CCC(N)CC3)c2-c2nc3ccc(Cl)cc3[nH]2)C(C)C)c(OCC(=O)O)c1)C(C)C` [Compound 24]: 0.2 nM, 20 nM and 100 nM.
The matching figures for `CC[C@H](C)[C@@H]([C@@H](CC(=O)N1CCC[C@H]1[C@H](OC)[C@@H](C)C(=O)N[C@H](C)[C@@H](O)c1ccccc1)OC)N(C)C(=O)[C@@H](NC(=O)[C@H](C(C)C)N(C)C(=O)OCc1ccc(NC(=O)C(CCCNC(N)=O)NC(=O)C2(NC(=O)CCOCCC(=O)NCCNc3ncc(-c4cc(C)cc(F)c4)c(N4CCC(N)CC4)c3-c3nc4ccc(Cl)cc4[nH]3)CCC2)c(O[C@@H]2O[C@H](C(=O)O)[C@@H](O)[C@H](O)[C@H]2O)c1)C(C)C` (stereo partly drawn) [Compound 242]: 0.045 nM, 2.5 nM and 70 nM.
With `CC[C@H](C)[C@@H]([C@@H](CC(=O)N1CCC[C@H]1[C@H](OC)[C@@H](C)C(=O)N[C@H](C)[C@@H](O)c1ccccc1)OC)N(C)C(=O)[C@@H](NC(=O)[C@H](C(C)C)N(C)C(=O)OCc1ccc(NC(=O)[C@H](C)NC(=O)[C@@H](NC(=O)CCOCCC(=O)NCCNc2ncc(-c3cc(C)cc(F)c3)c(N3CCC(N)CC3)c2-c2cc3ccc(Cl)cc3[nH]2)C(C)C)c(O[C@@H]2O[C@H](C(=O)O)[C@@H](O)[C@H](O)[C@H]2O)c1)C(C)C` [Compound 115], the concentration for a half-maximal effect (EC50) in test [1] amounted to 0.075 nM; at SST2 it was 5.9 nM; in test [2] it was 5.1 nM.
With `CC[C@H](C)[C@@H]([C@@H](CC(=O)N1CCC[C@H]1[C@H](OC)[C@@H](C)C(=O)N[C@H](C)[C@@H](O)c1ccccc1)OC)N(C)C(=O)[C@@H](NC(=O)[C@H](C(C)C)N(C)C(=O)OCc1ccc(NC(=O)[C@H](CCCNC(N)=O)NC(=O)[C@@H](NC(=O)CCOCCC(=O)NCCNc2ncc(-c3cc(C)cc(F)c3)c(N3CCC(N)CC3)c2-c2nc3ccc(Cl)cc3[nH]2)C(C)C)c(O[C@@H]2O[C@H](C(=O)N3CCOCC3)[C@@H](O)[C@H](O)[C@H]2O)c1)C(C)C` [Compound 223], the EC50 in test [1] came out at 0.054 nM; on SST2 it was 2.8 nM; in test [2], 9.2 nM.
